The source of these data is PubChem BioAssay (NCI).

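Briefly, cells in 96-well plates were exposed to five compound concentrations for 48 h, and endpoints were estimated by linear interpolation. Definition used: TGI = concentration required for complete inhibition of growth.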 A value given as a limit tells only on which side of the number the result lay.

Some test systems named below: MDA-MB-231 breast; PC-3 prostate; BT-549 breast; OVCAR-5 ovarian; KM12 colon; K-562 leukemia; SK-MEL-2 melanoma; SF-295 CNS; M14 melanoma; HCT-15 colon; LOX IMVI melanoma; NCI-H522 lung; OVCAR-8 ovarian; UACC-62 melanoma; OVCAR-3 ovarian; HCT-116 colon; COLO 205 colon; U251 CNS; A549 NSCLC.
Holding throughout (experiment): growth of human tumour cells (NCI), 48 h

In the case of `CCOc1c2ccsc2c(OCC)c2ccsc12`, the TGI in the test on MDA-MB-231 breast, with PC-3 prostate, in the test with BT-549 breast, with OVCAR-5 ovarian, in the test on KM12 colon and in the test on K-562 leukemia was greater than 100 µM each time. For the same compound, the TGI with SK-MEL-2 melanoma is greater than 100 µM; with SF-295 CNS it was 9.84 µM; in the test on M14 melanoma, greater than 100 µM; in the test with HCT-15 colon it was greater than 30.7 µM; in the test with LOX IMVI melanoma, 23 µM; in the test with NCI-H522 lung, greater than 28.9 µM. The TGI is greater than 100 µM with OVCAR-8 ovarian; greater than 100 µM in the test on UACC-62 melanoma; 61.1 µM in the test on OVCAR-3 ovarian; greater than 100 µM with HCT-116 colon; greater than 41.1 µM in the test on COLO 205 colon; greater than 100 µM with U251 CNS. The TGI in the test with A549 NSCLC is greater than 100 µM.
For the compound `O=C(O)CC(C(=O)O)c1ccccc1[N+](=O)[O-]` (stereo unspecified), the TGI in the test with MDA-MB-231 breast, in the test on PC-3 prostate, in the test with BT-549 breast, in the test on OVCAR-5 ovarian, with KM12 colon and with K-562 leukemia was greater than 100 µM throughout. In addition, the TGI in the test on SK-MEL-2 melanoma, in the test on SF-295 CNS, with M14 melanoma, with HCT-15 colon, with LOX IMVI melanoma and in the test on NCI-H522 lung was greater than 100 µM in each case. Also, the TGI with OVCAR-8 ovarian, in the test with UACC-62 melanoma, with OVCAR-3 ovarian, with HCT-116 colon, with COLO 205 colon and with U251 CNS was greater than 100 µM throughout. Further, in the test with A549 NSCLC, the TGI was greater than 100 µM.
On to `COc1c2c(c(OC)c3c1c(=O)c1ccccc1n3C)OCO2`, for which the TGI in the test with MDA-MB-231 breast is greater than 31.6 µM; with PC-3 prostate, greater than 100 µM; with BT-549 breast, greater than 100 µM; in the test with OVCAR-5 ovarian it was greater than 100 µM; in the test with KM12 colon, greater than 41.9 µM; in the test with K-562 leukemia, greater than 100 µM. Also, the TGI is greater than 100 µM in the test on SK-MEL-2 melanoma; greater than 100 µM in the test with SF-295 CNS; greater than 100 µM in the test on M14 melanoma; greater than 100 µM with HCT-15 colon; greater than 100 µM in the test on LOX IMVI melanoma; greater than 43.1 µM with NCI-H522 lung. Besides, the TGI with OVCAR-8 ovarian was greater than 100 µM; in the test on UACC-62 melanoma, greater than 100 µM; in the test on OVCAR-3 ovarian, greater than 100 µM; in the test on HCT-116 colon, greater than 91.6 µM; with COLO 205 colon, 53.9 µM; in the test with U251 CNS, greater than 100 µM. For the same compound, the TGI in the test with A549 NSCLC is greater than 100 µM.
For the compound `CCOC(=O)c1cc2cc(N(C(C)=O)C(C)=O)ccc2s1`, the TGI is 58.7 µM in the test on MDA-MB-231 breast; 46.2 µM in the test with PC-3 prostate; 91.5 µM in the test with BT-549 breast; 73.8 µM in the test on OVCAR-5 ovarian; greater than 100 µM with KM12 colon; 87 µM in the test with K-562 leukemia. In addition, the TGI with SK-MEL-2 melanoma was 51.6 µM; in the test with SF-295 CNS it was greater than 100 µM; in the test on M14 melanoma, greater than 100 µM; in the test on HCT-15 colon, greater than 100 µM; in the test with LOX IMVI melanoma it was greater than 100 µM; with NCI-H522 lung it was 55.3 µM. For the same compound, the TGI in the test with OVCAR-8 ovarian was 93.2 µM; with UACC-62 melanoma, greater than 100 µM; in the test with OVCAR-3 ovarian, greater than 100 µM; with HCT-116 colon, greater than 100 µM; in the test with COLO 205 colon, greater than 100 µM; in the test with U251 CNS, 59.6 µM. For the same compound, in the test with A549 NSCLC, the TGI was greater than 100 µM.
In the case of `CC(=O)/C(C=Nc1c(C)n(C)n(-c2ccccc2)c1=O)=C(/C)O`, the TGI in the test with MDA-MB-231 breast, with PC-3 prostate, with BT-549 breast, in the test with OVCAR-5 ovarian, in the test with KM12 colon and with K-562 leukemia was greater than 100 µM throughout. The TGI in the test with SK-MEL-2 melanoma, in the test with SF-295 CNS, with M14 melanoma, with HCT-15 colon, with LOX IMVI melanoma and with NCI-H522 lung was greater than 100 µM in each case. Further, the TGI in the test on OVCAR-8 ovarian, in the test on UACC-62 melanoma, in the test on OVCAR-3 ovarian, in the test with HCT-116 colon, in the test with COLO 205 colon and with U251 CNS was greater than 100 µM each time. Also, the TGI in the test on A549 NSCLC was greater than 100 µM.
Consider `CC1=C(/C=C/C(C)=C/C=C/C(C)=C/C(=O)OCC2OC(n3cc(F)c(=O)[nH]c3=O)CC2OC(=O)/C=C(C)/C=C/C=C(C)/C=C/C2=C(C)CCCC2(C)C)C(C)(C)CCC1` (stereo unspecified), for which the TGI in the test with MDA-MB-231 breast was greater than 86.8 µM; with PC-3 prostate, greater than 56.2 µM; in the test on BT-549 breast, greater than 76.3 µM; in the test with OVCAR-5 ovarian, greater than 67.6 µM; with KM12 colon, greater than 74.7 µM; with K-562 leukemia it was greater than 72.5 µM. Moreover, the TGI in the test with SK-MEL-2 melanoma is greater than 100 µM; with SF-295 CNS, greater than 40.2 µM; in the test with M14 melanoma, greater than 48.3 µM; in the test on HCT-15 colon, greater than 57.1 µM; in the test on LOX IMVI melanoma, 25.8 µM; with NCI-H522 lung, 28.2 µM. The TGI in the test on OVCAR-8 ovarian is greater than 66.7 µM; in the test with UACC-62 melanoma, greater than 23.8 µM; in the test on OVCAR-3 ovarian, greater than 39.5 µM; with HCT-116 colon it was 27.1 µM; in the test with COLO 205 colon, greater than 60.1 µM; in the test on U251 CNS, greater than 54.1 µM. The compound further came in with a TGI in the test with A549 NSCLC greater than 48.5 µM.
Take `CNc1ncnc(Sc2nc(N)nc3nc[nH]c23)c1[N+](=O)[O-]`: the TGI in the test with MDA-MB-231 breast is 20.6 µM; in the test on PC-3 prostate it was 22 µM; in the test with BT-549 breast, 20.1 µM; with OVCAR-5 ovarian, greater than 77.4 µM; in the test with KM12 colon, 25.3 µM; in the test with K-562 leukemia, 5.66 µM. The TGI in the test with SK-MEL-2 melanoma is 8.9 µM; with SF-295 CNS it was greater than 100 µM; in the test on M14 melanoma, 19.4 µM; in the test with HCT-15 colon, 14 µM; in the test with LOX IMVI melanoma, 12.2 µM; in the test with NCI-H522 lung, 6.76 µM. Also, the TGI stood at 18.5 µM in the test on OVCAR-8 ovarian; 16.2 µM in the test on UACC-62 melanoma; 12 µM with OVCAR-3 ovarian; 11.9 µM with HCT-116 colon; 5.53 µM with COLO 205 colon; 26.9 µM in the test with U251 CNS. In the test with A549 NSCLC, this compound gave a TGI greater than 49.2 µM.
For `CN(C)c1nc(N(C)C)nc(N(C)C)n1`, the TGI in the test on MDA-MB-231 breast, in the test with PC-3 prostate, in the test with BT-549 breast, with OVCAR-5 ovarian, in the test on KM12 colon and with K-562 leukemia was greater than 150 µM each time. Further, the TGI in the test on SK-MEL-2 melanoma, with SF-295 CNS, in the test on M14 melanoma, with HCT-15 colon, in the test on LOX IMVI melanoma and with NCI-H522 lung was greater than 150 µM in each case. The TGI was greater than 150 µM in the test on OVCAR-8 ovarian; greater than 150 µM with UACC-62 melanoma; greater than 143 µM in the test with OVCAR-3 ovarian; greater than 150 µM in the test on HCT-116 colon; greater than 150 µM in the test with COLO 205 colon; greater than 150 µM in the test with U251 CNS. The compound further displayed a TGI with A549 NSCLC greater than 150 µM.
As for `Cc1ccc(/C=C2\CN(C)CC3=C2OC(N)=C(C#N)C3c2ccc(C)cc2)cc1` (stereo unspecified), the TGI was greater than 63.7 µM in the test with MDA-MB-231 breast; greater than 45.1 µM with PC-3 prostate; 40.1 µM with BT-549 breast; 55.7 µM in the test with OVCAR-5 ovarian; 39.3 µM in the test with KM12 colon; greater than 100 µM with K-562 leukemia. Also, the TGI in the test on SK-MEL-2 melanoma is greater than 63.4 µM; with SF-295 CNS it was 46 µM; in the test with M14 melanoma it was 43.9 µM; in the test with HCT-15 colon it was 42.9 µM; in the test with LOX IMVI melanoma, 27.2 µM; in the test on NCI-H522 lung, greater than 49.9 µM. Also, the TGI in the test with OVCAR-8 ovarian was greater than 92 µM; with UACC-62 melanoma it was 89.1 µM; in the test with OVCAR-3 ovarian, 29.8 µM; in the test on HCT-116 colon it was 27.5 µM; with COLO 205 colon, greater than 69.3 µM; with U251 CNS, greater than 61.1 µM. The compound also came in with a TGI with A549 NSCLC of 49.4 µM.
